This note sets out measurements from US11213515B1, “Compounds that interact with the Ras superfamily for the treatment of cancers, inflammatory diseases, rasopathies, and fibrotic disease” (Shy Therapeutics LLC, priority 2017, dated 2022).

The structures appear in SMILES notation.

The target of the assay is KRas G12D/Q61H double mutant (Homo sapiens (Human), UniProt P01116, G12D/Q61H). The experiment in a line: Ras GTP binding domain inhibition assay (labeled GTP). The conditions noted are these: 20 μM compound. The method, then: Buffer-I: • 50 mM Tris, pH 7.5 • 150 mM NaCl (optional) • 1 mM MgCl2 • 1 mM DTT. • KRas G12D mutant protein was expressed as a His-tagged protein. Purified His-KRas G12D protein was diluted in buffer-I to a final concentration of 3-10 μg/ml. • 200 μl of the diluted His-KRas G12D protein was added to a nickel coated 96 well plate and incubated overnight at 4° C. • The next day, wells were washed 3× in 200 μl of Buffer-I. • Then 200 μl of Buffer-I were added to each well in the presence of 1% DMSO. • Tested compounds were added to the protein-coated wells at a concentration of 20 μM, and incubated for 3 hours at room temperature. […]
Then 22 μl of Cy3-GTP or Cy5-GTP was added to each well. The labeled GTP was incubated for 45 min. at room temperature. • Following GTP incubation, wells were washed 3× in Buffer-I, and 200 μl of Buffer-I were added to each well. • Following washes, the amount of bound labeled-GTP was measured with an Eppendorf AF2200 plate reader.
By substituting KRas G12D mutant protein with KRas G12C mutant, KRas wild type, KRas Q61H mutant, KRas G12D/Q61H double mutant or KRas G12C/Q61H double mutant under the assay conditions described above, KRas G12C mutant KRas wild type, KRas Q61H mutant, KRas G12D/Q61H double mutant and KRas G12C/Q61H double mutant inhibition, respectively, were each determined.

Chain of KRas G12D/Q61H double mutant (P01116-2 other isoform, or with tags, fused parts or gaps G12D/Q61H): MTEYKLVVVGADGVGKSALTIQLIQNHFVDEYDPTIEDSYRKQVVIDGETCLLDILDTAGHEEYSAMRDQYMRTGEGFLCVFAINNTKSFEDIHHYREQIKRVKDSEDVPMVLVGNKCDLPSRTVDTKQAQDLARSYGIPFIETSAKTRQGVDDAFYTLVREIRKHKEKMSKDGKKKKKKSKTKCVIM

As to `COCCn1c(SC(C)c2nc(-c3cccnc3)no2)nc2cc(Cl)ccc2c1=O` (stereo not shown), the inhibition at 20 µM lay within 1 to 25%.
